This is an account of results in US5308843A, “Method of inhibiting mammalian topoisomerase II and malignant cell growth in mammals, with substituted (S)-3-methyl-7-oxo-2,3-dihydro-7H-pyrido[1,2,3-de][1,4 ]-benzoxazine(and-benzothiazine)-6-carboxylic acids” (Sterling Drug Inc., priority 1990, dated 1994).

Entries after “also recorded” stand apart in the source; their conditions may differ.

One data set deals with T1, human topoisomerase II (Homo sapiens, UniProt P11388).
T1 construct: Topo II was purified from late log phase suspension cultures of HeLa WIS; endogenous in cells; host or cells: HeLa WIS (late log phase suspension cultures); native enzyme purified in house
Nature of the data set: Mammalian (human) topoisomerase II inhibition assay: topo II-DNA complex stabilisation. The settings on record: concentration with activity equal to the EC50 of reference mAMSA; 20 min at 37° C. In kind it is biochemical. The text has this:
Mammalian Topoisomerase II Inhibition Assay Procedure
The inhibition of human topoisomerase II (hereafter topo II) was quantitated by a procedure adapted from that described by Trask et al., EMBO J., 3, 671-676 (1984). The assay quantitates the amount of topo II covalently complexed by DNA at equilibrium during a topo II reaction. This assay determines the potential of a compound to stabilize this complex, which potential is closely related to the cytotoxicity of the compound.
Topo II was purified from late log phase suspension cultures of HeLa WIS by an adaption of the method described by Per et al., Mol. Pharmacol., 32, 17-25 (1987).
Assays (in duplicate) were assembled at 4° C. Assay mix (25 μl) was distributed in Beckman (No. 265270) 1.5 ml microtitre tubes followed by the addition of 5 μl test compound to yield the final concentrations of assay components:
4 ng 3' end labeled (32p) pBR322 DNA (10^7 DPM/μg)
The assay mix including the test compound was incubated for 20 minutes at 37° C. The reaction was terminated at 37° C. by the addition of 3 μl 10% SDS followed by the addition of 266 μl 10 mM Tris-Cl pH 7.5, 20 μg/ml BSA, 20 μg/ml calf thymus DNA, 1% SDS.
A SDS/protein precipitate was formed by the addition of 28 μl 2.5M KCl followed by chilling on ice for a minimum of 10 minutes. The precipitate was collected and washed with a Brandell cell harvester on a GFB glass fiber filter membrane as follows. The contents of the assay tube were drawn up into the harvester. The tube was then rinsed 7× with 10 mM Tris-Cl pH 7.5, 1 mM EDTA and 100 mM KCl. The precipitate was washed with 1 L of a solution of 10 mM Tris-Cl pH 7.5, 1 mM EDTA, 100 mM KCl followed by 1 L of 95% ethyl alcohol and finally 0.5 L 70% of ethyl alcohol (per 48 samples in each case). After drying, CPM was determined by liquid scintillation counting with 5 ml Biofluor (NEN Research Products) or Readisafe (Beckman Instruments Inc.) cocktail.
Preparation of test compound--A stock solution (6 mg/ml) of test compound was prepared either in 0.1N sodium hydroxide or 0.2N hydrogen chloride. This solution then was diluted 1/5 into water and serially thereafter in either 0.02N sodium hydroxide or 0.04N hydrogen chloride, respectively. The stock solution and serial dilution of the test compound was stored at -20° C. prior to testing.
Screening of test compound--As an initial screen, the test compound was tested at a final concentration of 2, 20 and 200 μg/ml.
Controls--A solvent control which indicates the base level of topo II-DNA complex formed in the absence of the test compound was included in each test. A control, in which topo II was omitted, was included for each test compound at the highest drug concentration tested.
Reference agent--A dose response curve with mAMSA at 0.01, 0.08, 0.16, 0.32, 1.0 and 10 μg/ml was included in each test.
Data reduction--The EC50 (effective concentration at which 50% of the maximal DNA-topo II complex is formed) of a test compound is defined to be the concentration with activity equal to the EC50 of the reference agent, mAMSA. The maximal DNA-topo II complex formed is taken as that equal to that formed at the nearly saturating dose of mAMSA (10 μg/ml).

Data set [1] is described as follows: In vivo antitumor assay, B16 melanoma (IP). On the set-up: species or system mice. The settings on record: mouse, in vivo; B16(IP) 0.5 ml 10% brie; drug IP; QD1,5,9; read-out: Maximum Tolerated Total Dose. An excerpt: (§1) In vivo Antitumor Assay Procedure
(§2) Mice: Inbred: C3H/He; and Hybrids: B6D2F1 (C57BL/6 females×DBA/2 males), CD2F1 (Balb/c females×DBA/2 males) and B6C3F1 (C57BL/6×C3H) were bred at Wayne State University from strains obtained from the Frederick Cancer Research Facility, Frederick, Md. or from commercial suppliers.
(§3) Tumors: Murine Tumors: P388 leukemia and the following transplantable solid tumors of mice were used for in vivo testing: B16 melanoma, pancreatic ductal adenocarcinoma No. 03, colon adenocarcinoma No. 38 and mammary ductal adenocarcinoma No. 16/C. All tumors are in the Developmental Therapeutics Program frozen tumor repository, maintained by the Biological Testing Branch, Frederick, Md. Each has a detailed description, code identification number, and list of references at the National Tumor Repository. Tumors were maintained in the mouse strain of origin and were transplanted in the appropriate F1 hybrid (or the strain of origin) for therapy trials. The mice were supplied food and water ad libitum.
(§4) For P388 leukemia and B16 melanoma studies the tumor cells were implanted IP on day zero and treatment was started on day one (also IP). Titered controls were also included to facilitate the calculation of tumor cell kill.
(§5) End Points for Assessing Antitumor Activity: Quantitative end points used to assess antitumor activity included % Increased Life Span (% ILS), Tumor Cell Kill (Log10 kill), and Tumor Growth Inhibition (T/C). Long Term Survivors (45 or 60 day) were excluded from calculations of % ILS and Tumor Cell Kill.
(§6) Endpoints were calculated as follows: [formula] where Dt is the median day of death for treated and Dc is the median day of death for control groups.
(§7) The log10 cell kill was calculated from the following formula: [formula] where T-C is the tumor difference in the median day of death between the treated (T) and the control (C) groups and Td is the tumor doubling time (in days), the latter estimated from the best fit straight line from a log-linear growth plot of the control-group tumors in exponential growth. The conversion of the T-C values to log10 cell kill is possible because the Td for tumors regrowing post-treatment approximated the Td values of the tumors in untreated control mice.

Another data set has as its system B16 melanoma. Nature of the data set: In vivo antitumor assay, B16 melanoma (IP). On the set-up: species or system mice.
Description: as §1, §2, §3, §4, §5, §6, §7

A further data set concerns several tumor systems. Description: Antitumor activity in mice against several tumor systems (overall statement). In kind it is in vivo.
Description: as §1, §2
as §3, with “libitum. […]” for “libitum.”
End Points for Assessing Antitumor Activity: Quantitative end points used to assess antitumor activity included % Increased Life Span (% ILS), Tumor Cell Kill (Log10 kill), and Tumor Growth Inhibition (T/C). […]

T1 sequence (P11388 whole entry): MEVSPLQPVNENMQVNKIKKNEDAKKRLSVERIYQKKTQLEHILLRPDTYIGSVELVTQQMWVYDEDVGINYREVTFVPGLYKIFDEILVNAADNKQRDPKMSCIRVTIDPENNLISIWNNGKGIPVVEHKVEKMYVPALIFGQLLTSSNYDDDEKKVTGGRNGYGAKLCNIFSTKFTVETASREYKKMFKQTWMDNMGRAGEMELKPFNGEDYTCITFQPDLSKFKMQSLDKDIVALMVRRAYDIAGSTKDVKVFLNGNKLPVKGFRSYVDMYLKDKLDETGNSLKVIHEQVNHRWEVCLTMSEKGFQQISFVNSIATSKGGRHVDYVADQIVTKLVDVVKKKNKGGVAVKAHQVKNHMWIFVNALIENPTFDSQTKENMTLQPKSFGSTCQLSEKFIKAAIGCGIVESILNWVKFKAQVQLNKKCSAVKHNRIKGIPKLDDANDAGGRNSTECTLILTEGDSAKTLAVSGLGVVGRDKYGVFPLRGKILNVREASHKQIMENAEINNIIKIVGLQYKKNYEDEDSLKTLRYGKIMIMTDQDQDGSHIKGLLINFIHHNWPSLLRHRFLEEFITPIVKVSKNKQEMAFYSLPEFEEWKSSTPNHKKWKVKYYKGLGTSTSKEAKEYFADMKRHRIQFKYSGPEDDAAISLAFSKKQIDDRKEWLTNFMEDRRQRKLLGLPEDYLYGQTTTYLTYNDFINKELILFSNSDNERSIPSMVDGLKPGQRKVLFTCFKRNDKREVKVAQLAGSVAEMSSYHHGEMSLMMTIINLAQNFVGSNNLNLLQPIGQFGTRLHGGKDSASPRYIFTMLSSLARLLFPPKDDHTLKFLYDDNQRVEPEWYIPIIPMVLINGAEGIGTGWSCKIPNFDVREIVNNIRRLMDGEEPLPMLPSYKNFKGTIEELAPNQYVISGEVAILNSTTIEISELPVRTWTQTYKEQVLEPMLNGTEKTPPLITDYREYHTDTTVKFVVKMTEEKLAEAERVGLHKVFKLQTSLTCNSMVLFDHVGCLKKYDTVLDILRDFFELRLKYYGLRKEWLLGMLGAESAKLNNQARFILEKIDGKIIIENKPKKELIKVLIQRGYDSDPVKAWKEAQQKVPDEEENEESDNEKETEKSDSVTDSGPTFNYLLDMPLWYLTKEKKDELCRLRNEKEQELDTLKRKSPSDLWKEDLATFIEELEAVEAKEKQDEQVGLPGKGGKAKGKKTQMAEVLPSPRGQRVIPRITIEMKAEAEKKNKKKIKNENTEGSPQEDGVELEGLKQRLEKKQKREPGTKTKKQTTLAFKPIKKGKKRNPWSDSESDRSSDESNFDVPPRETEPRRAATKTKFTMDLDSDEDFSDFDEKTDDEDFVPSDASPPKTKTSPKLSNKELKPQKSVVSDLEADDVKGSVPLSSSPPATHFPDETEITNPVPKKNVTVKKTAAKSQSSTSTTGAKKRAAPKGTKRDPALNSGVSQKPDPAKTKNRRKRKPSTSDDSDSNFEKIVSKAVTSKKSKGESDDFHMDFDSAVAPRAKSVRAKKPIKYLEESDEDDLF

As to `Cc1cc(-c2c(F)cc3c(=O)c(C(=O)O)cn4c3c2SC[C@@H]4C)cc(C)n1` [Example 5, (S)-10-(2,6-Dimethyl-4-pyridinyl)-9-fluoro-3-methyl-7-oxo-2,3-dihydro-7H-pyrido[1,2,3-de][1,4]benzothiazine-6-carboxylic acid], the 50% effective concentration (EC50) at human topoisomerase II was 9.4 µM. In addition, the MTD in data set [1] is 1500 mg/kg. In addition, the “% ILS” value with B16 melanoma (B16(IP), drug IP, QD1,5,9, 1500 mg/kg total) stood at 66%. Further, in the data set with B16 melanoma (B16(IP), drug IP, QD1,5,9, 1500 mg/kg total, footnote 5: Day 60, tumor evident), the “Long Term Survivors” value is on record as 1/6. For the same molecule, in the data set with B16 melanoma (B16 melanoma IP), the “antitumor activity (in words)” value was “Day 60; tumor evident; also recorded: good activity” and the “log10 tumor cell kill” value is given as 2.0 log10. For the same molecule, the “antineoplastic activity (in words)” value in the data set on several tumor systems is “found to possess antineoplastic activity as evidenced by its activity in reducing the size of and curing tumors, and increasing the survival time of the mice”.

As usually defined, the EC50 is the concentration needed to bring the measured effect to its halfway point. Read a low EC50 as a more potent agent.
